{"source": "the NIST ThermoML archive (doi:10.1021/acs.jced.8b00966)", "conditions": "Liquid, Ebulliometric method (Recirculating still)", "note": "± gives the expanded uncertainty stated by the source."}
{"smiles": "CC(C)(CO)CCl", "note": "[3-chloro-2,2-dimethyl-1-propanol]", "values": [{"measurement": "vapor or sublimation pressure", "setting": "439.15 K", "result": "101.3 ± 3", "unit": "kPa"}]}
{"smiles": "CC1CCCCC1", "note": "[methylcyclohexane]", "values": [{"measurement": "vapor or sublimation pressure", "setting": "373.35 K", "result": "101.3 ± 3", "unit": "kPa"}]}
{"smiles": "CC1(C)COC1", "note": "[3,3-dimethyloxetane]", "values": [{"measurement": "vapor or sublimation pressure", "setting": "352.8 K", "result": "101.3 ± 3", "unit": "kPa"}]}
